Reference: US5300672A (priority 1992, dated 1994)
Where two headings read alike, the source gives them in different places.

Legend:
[1] = tested on: Puccinia recondita (f. sp. tritici Races PKB and PLD); test: whole plant or invertebrate; type: in vivo; conditions: for pest or weed control at 200 ppm: Puccinia recondita, 240 h, read-out: % Control WLR
[2] = tested on: Phytophthora infestans; test: whole plant or invertebrate; type: in vivo; conditions: for pest or weed control at 200 ppm / pest or weed control at 50 ppm: Phytophthora infestans, in Solanum lycopersicum, 96 h
[3] = tested on: Pellicularia filamentosa (f. sp. sasiki); test: whole plant or invertebrate; type: in vivo
[4] = tested on: Pseudomonas fluorescens; test: Alternate Minimum Inhibitory Concentrations Test (Table 4), Ps.fl; type: cell-based; conditions: Table 4 alternate test; for MIC: Pseudomonas fluorescens, read-out: MIC Ps.fl; for MIC Ps.fl (I = inactive): class symbol
Protocol: The compounds of Examples 1-8, 12-26, 28-33, 36-37, 39-42, 44-109, 111-114, and 116-120 were subjected also to the following alternate biocidal activity test procedures with the results as indicated in Table 4.
The MIC test measures the viability of Pseudomonas fluorescens inoculum in TSB when exposed for 72 hours to varying concentrations of test compound.
A 125 μl aliquot of 10,000 ppm test compound in acetone was added to 4.88 ml of TSB to provide a 250 ppm solution. From this solution, 100 μL was transferred to the first row of two microtiter plate columns. Both replicates and five additional compounds were all serially diluted 1:1 to a final concentration of 0.8 ppm in TSB.
Inoculation was accomplished by diluting a 24 hr Ps fl culture, four mls per 36 mls of phosphate buffer solution. A Dynatech autoinoculator was used to transfer 1.5 μl of this cell suspension to the microtiter plates. The plates were incubated at 30° C. for 3 days before the lowest concentration at which no growth occurs was recorded in the database.

[5] = tested on: Piricularia oryzae; test: whole plant or invertebrate; type: in vivo; conditions: for pest or weed control at 200 ppm: read-out: % Control RB, application rate 200 ppm
[6] = tested on: Erysiphe graminis (f. sp. tritici); test: whole plant or invertebrate; type: in vivo
[7] = tested on: Pseudoperonospora cubensis; test: whole plant or invertebrate; type: in vivo; conditions: Pseudoperonospora cubensis, in Cucumis sativus, 168 h; read-out: % Control CDM
[8] = read-out: % Control TLB, application rate 200 ppm
[9] = 250 ppm to 0.8 ppm in TSB, 72 hours, 30° C.
[10] = Blumeria graminis, read-out: % Control WPM

Row | Compound | pest or weed control at 200 ppm [1] | pest or weed control at 200 ppm [2, 8] | MIC [4, 9] | pest or weed control at 200 ppm ([5]; Pyricularia oryzae) | pest or weed control at 200 ppm [6, 10] | pest or weed control at 200 ppm [7] | pest or weed control at 200 ppm ([2]; read-out: % Control TLB) | further results
1 | CCCCCCCCNC(=O)/C=C\SC(=O)c1ccc(OCCCCCCC)cc1 [Compound 45, N-octyl-cis-3-[(4-heptoxybenzoyl)thio]acrylamide] | 0% | 0% | > 250 µg/mL | 0% | 0% | 0% |  | pest or weed control at 200 ppm ([3]; 120 h, read-out: % Control RSB): 80%
2 | CCCCCCCCNC(=O)/C=C\SC(=O)/C=C/c1cccs1 [Compound 66, N-octyl-cis-3-[(trans-3-(2-thiophene)propenoyl)thio]acrylamide] | 0% |  | > 250 µg/mL |  | 0% |  | 90% | pest or weed control at 200 ppm ([3]; 120 h, read-out: % Control RSB): 0%; pest or weed control at 50 ppm ([5]; Pyricularia oryzae, read-out: % Control RB, application rate 50 ppm): 50%
3 | C=CC(=O)S/C=C\C(=O)NCCCCCCCC [Compound 71, N-octyl-cis-3-(propenoylthio)acrylamide] | 0% | 100% | > 250 µg/mL | 0% |  |  |  | pest or weed control at 200 ppm ([3]; 120 h, read-out: % Control RSB): 0%; pest or weed control at 12 ppm [6, 10]: 50%
4 | CCCCCCCCNC(=O)/C=C\SC(=O)c1cnc2ccccc2c1 [Compound 72, N-octyl-cis-3-[(3-quinoline)carbonylthio]acrylamide] | 0% |  | > 250 µg/mL | 0% | 0% |  | 90% | pest or weed control at 200 ppm ([3]; 120 h, read-out: % Control RSB): 50%
5 | CCCCCCCCNC(=O)/C=C\SC(=O)CC1CC(C(C)=O)C1(C)C (stereo not shown) [Compound 75] | 50% |  | > 250 µg/mL | 50% | 0% | 0% |  | pest or weed control at 50 ppm ([2]; read-out: % Control TLB): 90%; pest or weed control at 12 ppm ([3]; 120 h, read-out: % Control RSB): 0%
6 | CCCCCCCCNC(=O)/C=C\SC(=O)CCOc1ccccc1 [Compound 79, N-octyl-cis-3-[(3-phenoxypropanoyl)thio]acrylamide] | 0% | 100% | > 250 µg/mL | 0% | 0% |  |  | pest or weed control at 200 ppm ([3]; 120 h, read-out: % Control RSB): 0%
7 | CCCCCCCCNC(=O)/C=C\SC(=O)c1ccc([N+](=O)[O-])cc1C [Compound 99, N-octyl-cis-3-[(2-methyl-4-nitrobenzoyl)thio]acrylamide] | 0% | 0% | > 250 µg/mL | 75% | 50% | 50% |  | 
8 | CCCCCCCCNC(=O)/C=C\SC(=O)c1ccc(Cl)cc1Cl [Compound 100, N-octyl-cis-3-[(2,4-dichlorobenzoyl)thio]acrylamide] | 0% | 0% | > 250 µg/mL | 0% | 50% | 50% |  | 
9 | CCCCCCCCNC(=O)/C=C\SC(=O)C1C=CCC=C1C (stereo not drawn) [Compound 101, N-octyl-cis-3-[(2-methylcyclohexa-2,5-diene)carbonylthio]acrylamide] | 0% | 0% | > 250 µg/mL | 75% | 0% | 50% |  | 
10 | CCCCCCCCNC(=O)/C=C\SC(=O)c1cccc(Cl)c1Cl [Compound 102, N-octyl-cis-3-[(2,3-dichlorobenzoyl)thio]acrylamide] | 0% | 0% | > 250 µg/mL | 50% | 0% | 50% |  | 
11 | CCCCCCCCNC(=O)/C=C\SC(=O)c1ccc(Cl)c(Cl)c1 [Compound 103, N-octyl-cis-3-[(3,4-dichlorobenzoyl)thio]acrylamide] | 0% | 0% | > 250 µg/mL | 50% | 85% | 50% |  | 
12 | CCCCCCCCNC(=O)/C=C\SC(=O)c1ccc(Cl)c([N+](=O)[O-])c1 [Compound 104, N-octyl-cis-3-[(3-nitro-4-chlorobenzoyl)thio]acrylamide] | 0% | 0% | > 250 µg/mL | 50% | 0% | 0% |  | 
13 | CCCCCCCCNC(=O)/C=C\SC(=O)c1ccc(C)cc1 [Compound 106, N-octyl-cis-3-[(4-methylbenzoyl)thio]acrylamide] | 0% | 0% | > 250 µg/mL | 0% | 0% | 50% |  | 
14 | CCCCCCCCNC(=O)/C=C\SC(=O)c1cc([N+](=O)[O-])ccc1[N+](=O)[O-] [Compound 107, N-octyl-cis-3-[(2,5-dinitrobenzoyl)thio]acrylamide] | 0% | 0% | > 250 µg/mL | 0% | 50% | 0% |  | 
15 | CCCCCCCCNC(=O)/C=C\SC(=O)c1cnccc1Cl [Compound 108, N-octyl-cis-3-[(4-chloro-3-pyridine)carbonylthio]acrylamide] | 0% |  | > 250 µg/mL | 0% | 0% | 90% | 90% | 
16 | CCCCCCCCNC(=O)/C=C\SC(=O)/C=C/C=C/c1ccccc1 [Compound 109, N-octyl-cis-3-[(trans,trans-5-phenyl-2,4-pentadienoyl)thio]acrylamide] | 0% | 0% | > 250 µg/mL | 0% | 0% | 50% |  | 
17 | CCCCCCCCNC(=O)/C=C\SC(=O)CCCCCCC(=O)OC [Compound 110, N-octyl-cis-3-[(7-methoxycarbonylheptanoyl)thio]acrylamide] | 0% |  |  | 75% | 0% | 70% | 90% | 
18 | CCCCCCCCNC(=O)/C=C\SC(=O)c1ccc(Br)o1 [Compound 111, N-octyl-cis-3-[(5-bromo-2-furoyl)thio]acrylamide] | 0% |  | > 250 µg/mL | 0% | 0% | 85% | 80% | 
19 | CCCCCCCCNC(=O)/C=C\SC(=O)CCCCCCCC(=O)OC [Compound 117, N-octyl-cis-3-[(8-methoxycarbonyloctanoyl)thio]acrylamide] | 0% | 0% |  | 0% | 0% |  |  | MIC Ps.fl (I = inactive) [4]: I; pest or weed control at 50 ppm [7]: 95%
20 | CCCCCCCCNC(=O)/C=C\SC(=O)CCCCC(=O)OC [Compound 118, N-octyl-cis-3-[(5-methoxycarbonylpentanoyl)thio]acrylamide] | 0% |  |  | 75% | 0% | 100% | 90% | MIC Ps.fl (I = inactive) [4]: I
21 | CCCCCCCCNC(=O)/C=C\SC(=O)CCCCCCCCC(=O)OC [Compound 119, N-octyl-cis-3-[(9-methoxycarbonylnonanoyl)thio]acrylamide] | 0% |  |  | 50% | 0% | 70% | 80% | MIC Ps.fl (I = inactive) [4]: I
22 | CCCCCCCCNC(=O)/C=C\SC(=O)CCCOc1ccccc1 [Compound 120, N-octyl-cis-3-[(4-phenoxybutanoyl)thio]acrylamide] | 0% |  |  | 0% | 0% | 90% |  | pest or weed control at 50 ppm ([2]; read-out: % Control TLB): 80%; MIC Ps.fl (I = inactive) [4]: I
23 | N-octyl-cis-3-[(3-cyanobenzoyl)thio]acrylamide [Compound 67] |  |  |  |  |  |  |  | % Control WLR ([1]; in vivo): 0 % Control; % Control TLB ([2]; application rate 200 ppm): 95 % Control; % Control RSB ([3]; in vivo): 0 % Control; MIC Ps.fl [4, 9]: > 250 Ppm; % Control RB ([5]; in vivo): 0 % Control; % Control WPM ([6]; in vivo): 0 % Control
